What was measured:
[1] = target: Inactive tyrosine-protein kinase transmembrane receptor ROR1 (Homo sapiens, UniProt Q01973); experiment: Binding affinity to ROR1 kinase domain (453 to 783 residues) (unknown origin) assessed as dissociation constant by SPR analysis
NCI-H1975 = experiment: Antiproliferative activity against human NCI-H1975 cells harboring high ROR1 expression assessed as inhibition of cell growth incubated for 72 hrs by MTT assay; format: functional, cell-based; conditions: NCI-H1975, 72 h
A549 = experiment: Antiproliferative activity against human A549 cells harboring high ROR1 expression assessed as inhibition of cell growth incubated for 72 hrs by MTT assay; format: functional, cell-based; conditions: A549, 72 h
MDA-MB-231 = experiment: Antiproliferative activity against human MDA-MB-231 cells harboring high ROR1 expression assessed as inhibition of cell growth incubated for 72 hrs by MTT assay; format: functional, cell-based; conditions: MDA-MB-231, 72 h

Sequence of Inactive tyrosine-protein kinase transmembrane receptor ROR1 (Q01973 whole entry, the tested form may be a part): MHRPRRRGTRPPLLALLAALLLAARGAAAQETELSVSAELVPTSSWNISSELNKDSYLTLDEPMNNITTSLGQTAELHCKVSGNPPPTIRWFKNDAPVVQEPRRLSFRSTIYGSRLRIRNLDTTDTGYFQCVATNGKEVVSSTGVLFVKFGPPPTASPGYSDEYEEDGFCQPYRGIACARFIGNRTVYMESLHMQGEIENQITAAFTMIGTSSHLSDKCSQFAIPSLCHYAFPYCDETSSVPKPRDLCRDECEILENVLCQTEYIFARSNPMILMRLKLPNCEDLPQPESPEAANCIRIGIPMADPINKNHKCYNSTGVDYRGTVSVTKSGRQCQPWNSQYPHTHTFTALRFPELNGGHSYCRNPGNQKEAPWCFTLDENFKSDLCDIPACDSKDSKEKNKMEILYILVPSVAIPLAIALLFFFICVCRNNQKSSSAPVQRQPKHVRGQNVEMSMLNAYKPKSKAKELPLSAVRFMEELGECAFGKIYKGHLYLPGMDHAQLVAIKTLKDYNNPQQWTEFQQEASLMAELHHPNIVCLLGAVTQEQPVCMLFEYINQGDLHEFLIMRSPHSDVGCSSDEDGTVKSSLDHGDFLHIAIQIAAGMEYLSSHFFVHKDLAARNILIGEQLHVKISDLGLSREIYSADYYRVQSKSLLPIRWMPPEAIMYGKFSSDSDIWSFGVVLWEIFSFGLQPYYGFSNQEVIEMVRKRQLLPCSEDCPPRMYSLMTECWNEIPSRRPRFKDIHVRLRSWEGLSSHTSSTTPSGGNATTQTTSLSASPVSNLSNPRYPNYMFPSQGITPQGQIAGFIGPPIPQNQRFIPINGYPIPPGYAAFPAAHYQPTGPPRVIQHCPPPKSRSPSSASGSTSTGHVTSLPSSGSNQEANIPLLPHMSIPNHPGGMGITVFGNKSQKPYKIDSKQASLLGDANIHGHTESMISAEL

Kd [1]: 8.25 µM | IC50 (NCI-H1975): 66.7 µM | IC50 (A549): 27.5 µM | IC50 (MDA-MB-231): 31.3 µM
Structure (SMILES): Cc1ccc(C(=O)Nc2cccc(N(C)C)c2)cc1C#Cc1cnc2cccnn12
